According to US12297295B2, “Peptide for treating cancer” (Saint Leo University, priority 2019, dated 2025):
Like-named read-outs stand apart in the source and are kept apart here.

Columns and labels:
[1] = test system: BT-549 breast cancer cells; settings: two doubling times, CCK-8
Procedure: The effect of Peptides 7M and 7MM on BT-549 breast cancer cells (ATCC #HTB-122) was studied. Pierce Protein Transfection reagent (Thermo Scientific, 89850) was used to deliver peptide to the cultured cells. BT-549 breast cancer cells were transfected with 0.625-20 μM Peptide 7M or 1.25-10 μM Peptide 7MM for 3.5 hrs, incubated in a complete media for a duration of two doubling times (96 hours), and assessed for viability by using a CCK-8 colorimetric assay.
IC50 values were calculated from obtained equations that describe cell viability as a function of peptide concentration.

[2] = molecular target: T1, CMG helicase (Xenopus laevis, UniProt Q91876); assay: S phase arrested Xenopus egg extracts, chromatin RPA Western blot as readout for DNA helicase activity; format: biochemical; settings: 250 μM peptide, 90 min incubation
T1 construct: from tissue; host or cells: S phase arrested Xenopus egg extracts (endogenous proteins on chromatin)
Procedure: The peptide of SEQ ID NO: 1 was synthesized using solid-phase synthesis. The product was purified using HPLC to a purity of about 99%. 250 μM of peptide Ex7 ([…]) (SEQ ID NO: 8), peptide 7N (circularized—KGEVLQMEDDLV) (SEQ ID NO: 9), peptide 7M (ISFQLMLCVLDYF) (SEQ ID NO: 1), or peptide 7C (IKLSPPMLLKEPYK) (SEQ ID NO: 10) were incubated in S phase arrested Xenopus egg extracts. Following a 90 min incubation, chromatin was isolated and probed by Western blotting for RPA protein as a readout for DNA helicase activity. Additionally, peptide 7MN (ISFQLML) (SEQ ID NO: 5), peptide 7MM (QLMLCVL) (SEQ ID NO: 2), and peptide 7MC (LCVLDYF) (SEQ ID NO: 6) were tested.
250 μM of each of peptides 7α (DLVISFQLMLCVLDYFIK) (SEQ ID NO: 14), 7α-ln (LVISFQLMLCVLDYFIK) (SEQ ID NO: 22), 7α-2n (VISFQLMLCVLDYFIK) (SEQ ID NO: 23), 7α-3n (ISFQLMLCVLDYFIK) (SEQ ID NO: 24), 7α-4n (SFQLMLCVLDYFIK) (SEQ ID NO: 25), 7α-5n (FQLMLCVLDYFIK) (SEQ ID NO: 26), 7α-6n (QLMLCVLDYFIK) (SEQ ID NO: 27), 7α-7n (LMLCVLDYFIK) (SEQ ID NO: 28), 7α-17c (DLVISFQLMLCVLDYF) (SEQ ID NO: 29), 7α-16c (DLVISFQLMLCVLDY) (SEQ ID NO: 30), 7α-15c (DVISFQLMLCVLD) (SEQ ID NO: 31), 7α-14c (DVISFQLMLCVL) (SEQ ID NO: 32), 7α-11c (DVISFQLML) (SEQ ID NO: 33) was incubated in S phase arrested Xenopus egg extracts. Following a 90 min incubation, chromatin was isolated and probed by Western blotting for RPA protein as a readout for DNA helicase activity.

[3] = test system: cancer cells; assay: Viability of cancer cells, summary statement; format: cell-based
[4] = molecular target: T1, CMG helicase; assay: S phase arrested Xenopus egg extracts, chromatin RPA Western blot as readout for DNA helicase activity; format: biochemical; settings: extended from the above and other findings; no test described
[5] = transfected 1.25-10 μM for 3.5 hrs
[6] = conclusion drawn from Examples 39, 41, 42 and FIGS. 42, 44, 45
[7] = transfected 2.5 and 5.0 μM for 3.5 hrs
[8] = extended from the above and other findings, no test described

Row | Substance | effect on viability of BT-549 breast cancer cells [1, 5] | inhibition of CMG helicase in vitro (chromatin RPA Western blot) [2] | effect on viability of cancer cells [3, 6] | effect on viability of BT-549 breast cancer cells [1, 7] | effect on viability of cancer cells [3, 8] | inhibition of CMG helicase [4]
1 | DLVISFALMLCVLDYFIK [7α-Q7A] | inhibit viability of breast cancer cells |  |  |  |  | 
2 | DLVISFQGMLCVLDYFIK [7α-L8G] | inhibit viability of breast cancer cells |  |  |  |  | 
3 | DLVISFQLMLCVLDY (listed as Homo sapiens) [7α-16c] |  | inhibit CMG helicase in vitro | decrease viability of cancer cells |  |  | 
4 | DLVISFQLMLCVLDYF (listed as Homo sapiens) [7α-17c] |  | inhibit CMG helicase in vitro | decrease viability of cancer cells |  |  | 
5 | DVISFQLML (DLVISFQLML; listed as Homo sapiens) [7α-11c] |  | inhibit CMG helicase in vitro | decrease viability of cancer cells | decrease viability |  | 
6 | DVISFQLMLCVL (DLVISFQLMLCVL; listed as Homo sapiens) [7α-14c] |  | inhibit CMG helicase in vitro | decrease viability of cancer cells | decrease viability |  | 
7 | DVISFQLMLCVLD (DLVISFQLMLCVLD; listed as Homo sapiens) [7α-15c] |  | inhibit CMG helicase in vitro | decrease viability of cancer cells | decrease viability |  | 
8 | FQLMLCVLDYFIK (listed as Homo sapiens) [7α-5n] |  | inhibit CMG helicase in vitro | decrease viability of cancer cells |  |  | 
9 | GMLCVL [7MM6-G2] |  |  |  |  | decrease viability of cancer cells | inhibit CMG helicase
10 | GMLCVLD [7MM6-G2-D] |  |  |  |  | decrease viability of cancer cells | inhibit CMG helicase
11 | ISFQLMLCVLDYFIK (listed as Homo sapiens) [7α-3n] |  | inhibit CMG helicase in vitro | decrease viability of cancer cells |  |  | 
12 | LMGCVL [7MM6-G4] |  |  |  |  | decrease viability of cancer cells | inhibit CMG helicase
13 | LMLCVLDYFIK (listed as Homo sapiens) [7α-7n] |  | inhibit CMG helicase in vitro | decrease viability of cancer cells | decrease viability |  | 
14 | LVISFQLMLCVLDYFIK (listed as Homo sapiens) [7α-1n] |  | inhibit CMG helicase in vitro | decrease viability of cancer cells |  |  | 
15 | QLMLCVLDYFIK (listed as Homo sapiens) [7α-6n] |  | inhibit CMG helicase in vitro | decrease viability of cancer cells | decrease viability |  | 
16 | SFQLMLCVLDYFIK (listed as Homo sapiens) [7α-4n] |  | inhibit CMG helicase in vitro | decrease viability of cancer cells |  |  | 
17 | VISFQLMLCVLDYFIK (listed as Homo sapiens) [7α-2n] |  | inhibit CMG helicase in vitro | decrease viability of cancer cells |  |  | 
